# From ChEMBL document CHEMBL1909294, “Translating clinical findings into knowledge in drug safety evaluation--drug induced liver injury prediction system (DILIps)” (PLoS Comput Biol, 2011)
# Assays:
# [1] = system: Hepatotoxicity;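 as to HepSE cholelithiasis: hepatic side effect score for cholelithiasis, drawn from the DILIps training data for predicting drug-induced liver injury; call rule not given here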;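 as to HepSE elevated liver function tests: hepatic side effect score for raised liver function tests, as recorded in the DILIps training set used for predicting drug-induced liver injury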;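 as to HepSE hepatic necrosis: score of hepatic side effects for hepatic necrosis, drawn from the training data of DILIps, a prediction system for drug-induced liver injury; call rule not given here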;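 as to HepSE hepatomegaly: hepatic side effect score for hepatomegaly, taken from the training set of the DILIps drug-induced liver injury prediction system; call rule not given here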; as to HepSE liver disease: call rule not given here;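 as to HepSE liver function tests abnormal: hepatic side effect score taken from the DILIps (drug-induced liver injury prediction system) training data, here covering abnormal liver function test findings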
# [2] = system: Hepatotoxicity; remark: listed apart in the source;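 as to HepSE cholelithiasis: hepatic side effect score for cholelithiasis, drawn from the DILIps training data for predicting drug-induced liver injury; call rule not given here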;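 as to HepSE elevated liver function tests: hepatic side effect score for raised liver function tests, as recorded in the DILIps training set used for predicting drug-induced liver injury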;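 as to HepSE hepatic necrosis: score of hepatic side effects for hepatic necrosis, drawn from the training data of DILIps, a prediction system for drug-induced liver injury; call rule not given here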;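 as to HepSE hepatomegaly: hepatic side effect score for hepatomegaly, taken from the training set of the DILIps drug-induced liver injury prediction system; call rule not given here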; as to HepSE liver disease: call rule not given here;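 as to HepSE liver function tests abnormal: hepatic side effect score taken from the DILIps (drug-induced liver injury prediction system) training data, here covering abnormal liver function test findings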
# [3] = system: Hepatotoxicity; remark: listed apart in the source;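 as to HepSE cholelithiasis: hepatic side effect score for cholelithiasis, drawn from the DILIps training data for predicting drug-induced liver injury; call rule not given here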;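 as to HepSE elevated liver function tests: hepatic side effect score for raised liver function tests, as recorded in the DILIps training set used for predicting drug-induced liver injury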;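 as to HepSE hepatic necrosis: score of hepatic side effects for hepatic necrosis, drawn from the training data of DILIps, a prediction system for drug-induced liver injury; call rule not given here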;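 as to HepSE hepatomegaly: hepatic side effect score for hepatomegaly, taken from the training set of the DILIps drug-induced liver injury prediction system; call rule not given here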; as to HepSE liver disease: call rule not given here;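 as to HepSE liver function tests abnormal: hepatic side effect score taken from the DILIps (drug-induced liver injury prediction system) training data, here covering abnormal liver function test findings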
# [4] = system: Hepatotoxicity; remark: listed apart in the source;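 as to HepSE cholelithiasis: hepatic side effect score for cholelithiasis, drawn from the DILIps training data for predicting drug-induced liver injury; call rule not given here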;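 as to HepSE elevated liver function tests: hepatic side effect score for raised liver function tests, as recorded in the DILIps training set used for predicting drug-induced liver injury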;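 as to HepSE hepatic necrosis: score of hepatic side effects for hepatic necrosis, drawn from the training data of DILIps, a prediction system for drug-induced liver injury; call rule not given here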;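 as to HepSE hepatomegaly: hepatic side effect score for hepatomegaly, taken from the training set of the DILIps drug-induced liver injury prediction system; call rule not given here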; as to HepSE liver disease: call rule not given here;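 as to HepSE liver function tests abnormal: hepatic side effect score taken from the DILIps (drug-induced liver injury prediction system) training data, here covering abnormal liver function test findings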
# [5] = system: Hepatotoxicity; remark: listed apart in the source; as to HepSE liver disease: call rule not given here
# [6] = system: Hepatotoxicity; remark: listed apart in the source; as to HepSE liver disease: call rule not given here
# [7] = system: Hepatotoxicity; remark: listed apart in the source
# [8] = system: Hepatotoxicity; remark: listed apart in the source
# [9] = system: Hepatotoxicity; remark: listed apart in the source
# [10] = system: Hepatotoxicity; remark: listed apart in the source
# [11] = system: Hepatotoxicity; remark: listed apart in the source
# [12] = system: Hepatotoxicity; remark: listed apart in the source
# [13] = system: Hepatotoxicity; remark: listed apart in the source
# [14] = system: Hepatotoxicity; remark: listed apart in the source
SMILES,HepSE_cholelithiasis [1],HepSE_elevated liver function tests [2],HepSE_liver disease [3],HepSE_hepatomegaly [4],HepSE_liver function tests abnormal [5],HepSE_hepatic necrosis [6],HepSE_cirrhosis [7],HepSE_hepatic failure [8],HepSE_jaundice [9],HepSE_liver fatty [10],HepSE_Combined Scores [11],HepSE_hepatitis [12],HepSE_cholecystitis [13],HepSE_bilirubinemia [14],other results
Cc1cccc(C)c1NC(=O)C1CCCCN1C (stereo not drawn) [MEPIVACAINE],0,0,0,0,0,0,0,0,0,0,0,0,0,0,
CCCCCNC(=N)N/N=C/c1c[nH]c2ccc(OC)cc12 [TEGASEROD],1,0,0,0,0,0,0,0,0,0,4,1,1,1,
CC[C@]1(O)C[C@@H]2CN(CCc3c([nH]c4ccccc34)[C@@](C(=O)OC)(c3cc4c(cc3OC)N(C)[C@H]3[C@@](O)(C(=O)OC)[C@H](OC(C)=O)[C@]5(CC)C=CCN6CC[C@]43[C@@H]65)C2)C1 [VINBLASTINE],0,0,0,0,0,0,0,0,0,0,0,0,0,0,
N#Cc1ccc(C(c2ccc(C#N)cc2)n2cncn2)cc1 [LETROZOLE],0,0,0,0,0,0,0,0,0,0,0,0,0,0,
CC(C)(C)NC(=O)[C@@H]1CN(Cc2cccnc2)CCN1C[C@@H](O)C[C@@H](Cc1ccccc1)C(=O)N[C@H]1c2ccccc2C[C@H]1O.O,0,0,0,0,0,0,0,1,1,0,4,1,0,1,
CCOc1ccccc1OCCN[C@H](C)Cc1ccc(OC)c(S(N)(=O)=O)c1 [TAMSULOSIN],0,0,0,0,0,0,0,0,0,0,0,0,0,0,
CN1C(CCl)Nc2cc(Cl)c(S(N)(=O)=O)cc2S1(=O)=O (stereo not drawn) [METHYCLOTHIAZIDE],0,0,0,0,0,0,0,0,1,0,1,0,0,0,
CC(C)(C)NCC(O)COc1cccc2c1CCC(=O)N2 (stereo not drawn) [CARTEOLOL],0,0,0,0,0,0,0,0,0,0,0,0,0,0,
COc1c(N2C[C@@H]3CCCN[C@@H]3C2)c(F)cc2c(=O)c(C(=O)O)cn(C3CC3)c12 [MOXIFLOXACIN],0,0,0,0,1,0,0,1,1,0,5,1,0,1,
O=C(O)CN(CCN(CC(=O)O)CC(=O)O)CC(=O)O [EDETIC ACID],,,,,,,,,,,,,,,HepSE_cholelithiasis ([1]; Liver): 0; HepSE_elevated liver function tests ([2]; Liver): 0; HepSE_liver disease ([3]; Liver): 0; HepSE_hepatomegaly ([4]; Liver): 0; HepSE_liver function tests abnormal ([5]; Liver): 0; HepSE_hepatic necrosis ([6]; Liver): 0; HepSE_cirrhosis ([7]; Liver): 0; HepSE_hepatic failure ([8]; Liver): 0; HepSE_jaundice ([9]; Liver): 0; HepSE_liver fatty ([10]; Liver): 0; HepSE_Combined Scores ([11]; Liver): 0; HepSE_hepatitis ([12]; Liver): 0; HepSE_cholecystitis ([13]; Liver): 0; HepSE_bilirubinemia ([14]; Liver): 0
CN(C/C=C/C#CC(C)(C)C)Cc1cccc2ccccc12 [TERBINAFINE],0,0,1,0,0,0,0,1,1,0,3,0,0,0,
N[C@@H]1[C@H]2CN(c3nc4c(cc3F)c(=O)c(C(=O)O)cn4-c3ccc(F)cc3F)C[C@@H]12 [TROVAFLOXACIN],0,0,0,0,0,1,0,1,1,0,5,1,0,1,
CN(C)/N=N/c1[nH]cnc1C(N)=O [DACARBAZINE],0,0,0,0,0,0,0,0,0,0,0,0,0,0,
CO/N=C(\C(=O)N[C@@H]1C(=O)N2C(C(=O)O)=CCS[C@H]12)c1csc(N)n1 [CEFTIZOXIME],0,0,0,0,0,0,0,0,0,0,0,0,0,0,
NC(CO)(CO)CO [TROMETHAMINE],,,,,,,,,,,,,,,HepSE_cholelithiasis ([1]; Liver): 0; HepSE_elevated liver function tests ([2]; Liver): 0; HepSE_liver disease ([3]; Liver): 0; HepSE_hepatomegaly ([4]; Liver): 0; HepSE_liver function tests abnormal ([5]; Liver): 0; HepSE_hepatic necrosis ([6]; Liver): 0; HepSE_cirrhosis ([7]; Liver): 0; HepSE_hepatic failure ([8]; Liver): 0; HepSE_jaundice ([9]; Liver): 0; HepSE_liver fatty ([10]; Liver): 0; HepSE_Combined Scores ([11]; Liver): 0; HepSE_hepatitis ([12]; Liver): 0; HepSE_cholecystitis ([13]; Liver): 0; HepSE_bilirubinemia ([14]; Liver): 0
N[C@@H]1C[C@H]1c1ccccc1.N[C@H]1C[C@@H]1c1ccccc1 [TRANYLCYPROMINE],,,,,,,,,,,,,,,HepSE_cholelithiasis ([1]; Liver): 0; HepSE_elevated liver function tests ([2]; Liver): 0; HepSE_liver disease ([3]; Liver): 0; HepSE_hepatomegaly ([4]; Liver): 0; HepSE_liver function tests abnormal ([5]; Liver): 0; HepSE_hepatic necrosis ([6]; Liver): 0; HepSE_cirrhosis ([7]; Liver): 0; HepSE_hepatic failure ([8]; Liver): 0; HepSE_jaundice ([9]; Liver): 0; HepSE_liver fatty ([10]; Liver): 0; HepSE_Combined Scores ([11]; Liver): 1; HepSE_hepatitis ([12]; Liver): 1; HepSE_cholecystitis ([13]; Liver): 0; HepSE_bilirubinemia ([14]; Liver): 0
CC(=O)Oc1ccccc1C(=O)O [ASPIRIN],0,0,0,0,0,0,0,0,0,0,0,0,0,0,
